Assay results from patent US20240408274A1, “STENTS AND METHODS OF USE” (UNIVERSITY OF CONNECTICUT, priority 2021, published 2024).

System: Urothelial cell
Test: Urothelial cell scratch assay (wound assay)
Type: cell-based
Conditions: at 48 hours; FIGS. 7A-7B
From the text: As used herein a “scratch assay,” (i.e., a wound assay) is a method to measure two-dimensional cell migration. Six growth factors were selected and tested: EGF, FGF-2, PDGF, TGF-β1, and VEGF.

**Q.** How did the wound gap coverage turn out when “EGF: epidermal growth factor, growth factor tested in urothelial scratch assay (NSDSECPLSHDGYCLHDGVCMYIEALDKYACNCVVGYIGERCQYRDLKWWELR; UniProt P01133 971-1023, looked up)” was run?
**A.** increase

**Q.** How did the wound gap coverage turn out when “IGF-1: insulin-like growth factor 1, growth factor tested in urothelial scratch assay” was run?
**A.** increase
